Each compound was assayed against T1, aldosterone receptor (Rattus norvegicus, UniProt P22199) (assay: Binding inhibition test for aldosterone receptor ([3H]aldosterone, rat renal soluble fraction)). Settings: [3H]aldosterone 2 nM, rat renal soluble fraction, in the presence of 2 μM RU-486, 4° C. about 18 hours; read-out: MR IC50.
T1 construct: centrifuged at 105,000 g for 30 minutes, and then a supernatant was collected as a renal soluble fraction; from tissue; host or cells: rat kidney (adrenalectomized rat), 105,000 g supernatant (cytosol)
T1 sequence (P22199 1-981): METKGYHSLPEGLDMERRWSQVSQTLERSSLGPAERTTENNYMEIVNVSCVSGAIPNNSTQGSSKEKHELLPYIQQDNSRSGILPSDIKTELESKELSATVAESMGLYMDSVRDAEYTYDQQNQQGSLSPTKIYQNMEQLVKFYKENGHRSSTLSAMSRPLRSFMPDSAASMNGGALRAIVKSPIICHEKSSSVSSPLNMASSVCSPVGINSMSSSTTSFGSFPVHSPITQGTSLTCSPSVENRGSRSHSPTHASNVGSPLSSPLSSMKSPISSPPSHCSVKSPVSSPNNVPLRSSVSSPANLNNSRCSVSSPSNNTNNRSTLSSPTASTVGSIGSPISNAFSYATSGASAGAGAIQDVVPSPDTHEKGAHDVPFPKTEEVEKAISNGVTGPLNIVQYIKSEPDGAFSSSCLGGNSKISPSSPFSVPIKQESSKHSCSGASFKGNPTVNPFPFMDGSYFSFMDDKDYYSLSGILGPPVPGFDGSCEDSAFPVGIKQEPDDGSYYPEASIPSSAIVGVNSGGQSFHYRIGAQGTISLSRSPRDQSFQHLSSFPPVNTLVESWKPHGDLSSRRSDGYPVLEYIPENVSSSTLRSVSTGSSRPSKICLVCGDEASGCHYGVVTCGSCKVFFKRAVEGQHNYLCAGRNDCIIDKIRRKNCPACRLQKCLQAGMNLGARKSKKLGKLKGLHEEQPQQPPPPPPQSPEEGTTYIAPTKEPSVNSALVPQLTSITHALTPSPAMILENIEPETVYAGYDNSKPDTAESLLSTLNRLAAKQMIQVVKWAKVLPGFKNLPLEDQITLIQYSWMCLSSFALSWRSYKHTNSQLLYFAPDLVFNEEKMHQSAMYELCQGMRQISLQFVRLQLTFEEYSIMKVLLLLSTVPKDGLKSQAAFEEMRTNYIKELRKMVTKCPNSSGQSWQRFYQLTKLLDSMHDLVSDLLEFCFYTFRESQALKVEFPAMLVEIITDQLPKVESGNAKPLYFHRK
Protocol: Binding Inhibition Test for Aldosterone Receptor
A rat was layed open in flank regions (on both sides) to remove both adrenal glands. After stitching up the incision, the rat was returnd to a breeding cage again. After removing the kidney from the rat reared for about 3 to 5 days, the kidney was homogenized in 0.1 M Tris-HCl, 0.25M sucrose, 0.1M Na2MoO4 and 2 mM DTT buffer solution (pH7.4). The resultant was centrifuged at 105,000 g for 30 minutes, and then a supernatant was collected as a renal soluble fraction.
The rat renal soluble fraction (0.5 to 1.5 mg), a labeled ligand [^3H] aldosterone (2 nM) and a test article were reacted in the presence of 2 μM RU-486 (glucocorticoid receptor antagonist) in 100 μL of total amounts at 4° C. for about 18 hours. Afterwards, to the reaction solution was added 50 μL of 5% dextran-coated activated charcoal, and the mixture was immingled, and then centrifuged at 3,000 g for 5 minutes. Then, a supernatant (100 μL) was collected and mixed with a liquid scintillator ACS-II (Amersham) (3.5 mL), and then analyzed its radioactivity by a liquid scintillation counter (manufactured by Packard, Tri Carb 2700TR). A non-specific binding was obtained by addition of 2 μM aldosterone to a reaction solution. […]
Binding inhibition rate (%)=100−{(B−N)/(B0−N)}×100
B: labeled ligand binding amounts in the presence of a test article and a labeled ligand
B0: labeled ligand binding amounts in the absence of a test article
N: labeled ligand binding amounts in the presence of excess aldosterone (2 μM)
Test example 1 was carried out for compounds obtained in the Examples.

Compound | IC50 [nM]
COc1cc(NC(=O)c2ccc(-c3ccccc3C(F)(F)F)c(C)c2)ccc1S(N)(=O)=O [Example 7] | 350
COc1cc(NC(=O)c2ccc(-c3ccccc3C(F)(F)F)cc2)ccc1S(N)(=O)=O [Example 10] | 500
COc1cc(NC(=O)c2ccc(-c3ccccc3OC(F)(F)F)cc2)ccc1S(N)(=O)=O [Example 12] | 610
COc1cc(NC(=O)c2ccc(-c3ccccc3C)cc2)ccc1S(N)(=O)=O [Example 14] | 4700
COc1cc(NC(=O)c2ccc(-c3ccc(F)cc3C(F)(F)F)cc2)ccc1S(N)(=O)=O [Example 17] | 1700
COC(=O)c1ccccc1-c1ccc(C(=O)Nc2ccc(S(N)(=O)=O)c(OC)c2)cc1 [Example 19] | 3300
CCOC(=O)c1ccccc1-c1ccc(C(=O)Nc2ccc(S(N)(=O)=O)c(OC)c2)cc1 [Example 20] | 550
COc1cc(NC(=O)c2ccc(-c3ccccc3CN3CCOCC3)cc2)ccc1S(N)(=O)=O [Example 22] | 1600
COC(=O)c1cc(OC)ccc1-c1ccc(C(=O)Nc2ccc(S(N)(=O)=O)c(OC)c2)cc1 [Example 24] | 2400
COc1cc(NC(=O)c2ccc(-c3ccc(O)cc3C(F)(F)F)cc2)ccc1S(N)(=O)=O [Example 26] | 490
COCc1ccccc1-c1ccc(C(=O)Nc2ccc(S(N)(=O)=O)c(OC)c2)cc1 [Example 28] | 3000
COc1cc(NC(=O)c2ccc(-c3ccccc3C(=O)OC(C)(C)C)cc2)ccc1S(N)(=O)=O [Example 31] | 250
COc1cc(NC(=O)c2ccc(-c3ccccc3C3CCCCC3)cc2)ccc1S(N)(=O)=O [Example 35] | 350
COc1cc(NC(=O)c2ccc(-c3ccccc3C(C)C)cc2)ccc1S(N)(=O)=O [Example 36] | 1400
COc1cc(NC(=O)c2ccc(-c3ccccc3OC(C)C)cc2)ccc1S(N)(=O)=O [Example 39] | 1200
COc1cc(NC(=O)c2ccc(-c3ccccc3OC(F)(F)C(F)F)cc2)ccc1S(N)(=O)=O [Example 40] | 390
COc1cc(NC(=O)c2ccc(-c3ccccc3-c3cccs3)cc2)ccc1S(N)(=O)=O [Example 42] | < 1000
COc1cc(NC(=O)c2ccc(-c3ccccc3-c3nc(C)no3)cc2)ccc1S(N)(=O)=O [Example 46] | 3000
COc1cc(NC(=O)c2ccc(-c3ccccc3C(F)(F)F)cc2)ccc1S(=O)(=O)N(C)C [Example 50] | 700
CNS(=O)(=O)c1ccc(NC(=O)c2ccc(-c3ccccc3C(F)(F)F)cc2)cc1OC [Example 51] | 200
CCc1ccccc1-c1ccc(C(=O)Nc2ccc(S(N)(=O)=O)c(OC)c2)cc1 [Example 56] | 520
COc1cc(NC(=O)c2ccc(-c3ccccc3SC)cc2)ccc1S(N)(=O)=O [Example 57] | 650
COc1cc(C(=O)Nc2ccc(S(N)(=O)=O)c(OC)c2)ccc1-c1ccccc1C(F)(F)F [Example 59] | 260
CCOc1cc(C(=O)Nc2ccc(S(N)(=O)=O)c(OC)c2)ccc1-c1ccccc1C(F)(F)F [Example 60] | 200
COc1cc(NC(=O)c2ccc(-c3ccccc3C(F)(F)F)c(OCc3ccccc3)c2)ccc1S(N)(=O)=O [Example 62] | 1900
CC(=O)OCc1cc(C(=O)Nc2ccc(S(C)(=O)=O)cc2)ccc1-c1ccccc1C(F)(F)F [Example 64] | 400
CS(=O)(=O)c1ccc(NC(=O)c2ccc(-c3ccccc3C(F)(F)F)c(CO)c2)cc1 [Example 65] | 250

Compound | IC50 [nM]
COc1cc(NC(=O)c2ccc(-c3ccccc3C(F)(F)F)c(COC(C)=O)c2)ccc1S(N)(=O)=O [Example 68] | 210
COc1cc(NC(=O)c2ccc(-c3ccccc3C(F)(F)F)c(CO)c2)ccc1S(N)(=O)=O [Example 69] | 220
COc1cc(NC(=O)c2ccc(-c3ccccc3C(F)(F)F)c(CN(C)C)c2)ccc1S(N)(=O)=O [Example 72] | 530
COc1cc(NC(=O)c2ccc(-c3ccccc3C(F)(F)F)c(CN3CCCC3)c2)ccc1S(N)(=O)=O [Example 75] | 880
COc1cc(NC(=O)c2ccc(-c3ccccc3C(F)(F)F)c(CN3CCOCC3)c2)ccc1S(N)(=O)=O [Example 79] | 320
COc1cc(NC(=O)c2ccc(-c3ccccc3C(F)(F)F)c(CCl)c2)ccc1S(N)(=O)=O [Example 81] | 120
COc1cc(NC(=O)c2ccc(-c3ccccc3C(F)(F)F)c(CNC(C)C)c2)ccc1S(N)(=O)=O [Example 85] | 540
COc1cc(NC(=O)c2ccc(-c3ccccc3C(F)(F)F)c(CNC[C@H]3CCCO3)c2)ccc1S(N)(=O)=O [Example 91] | 260
COc1cc(NC(=O)c2ccc(-c3ccccc3C(F)(F)F)c(CNCC3CC3)c2)ccc1S(N)(=O)=O [Example 92] | 410
COc1cc(NC(=O)c2ccc(-c3ccccc3C(F)(F)F)c(CN3CCC3)c2)ccc1S(N)(=O)=O [Example 94] | 820
COc1cc(NC(=O)c2ccc(-c3ccccc3C(F)(F)F)c(COCC3CCCN(C)C3)c2)ccc1S(N)(=O)=O (stereo not drawn) [Example 99] | 2000
COc1cc(NC(=O)c2ccc(-c3ccccc3C(F)(F)F)c(COCCCO)c2)ccc1S(N)(=O)=O [Example 103] | 130
COc1cc(NC(=O)c2ccc(-c3ccccc3C(F)(F)F)c(COCC(OC)OC)c2)ccc1S(N)(=O)=O [Example 104] | 82
COc1cc(NC(=O)c2ccc(-c3ccccc3C(F)(F)F)c(OCCOCc3ccccc3)c2)ccc1S(N)(=O)=O [Example 109] | 190
COc1cc(NC(=O)c2ccc(-c3ccccc3C(F)(F)F)c(OCCO)c2)ccc1S(N)(=O)=O [Example 121] | 520
COc1cc(NC(=O)c2ccc(-c3ccccc3OC(F)(F)F)c(CO)c2)ccc1S(N)(=O)=O [Example 122] | 60
CCc1ccccc1-c1ccc(C(=O)Nc2ccc(S(N)(=O)=O)c(OC)c2)cc1CO [Example 126] | 310
COc1cc(NC(=O)c2ccc(-c3ccc(F)cc3C(F)(F)F)c(CO)c2)ccc1S(N)(=O)=O [Example 127] | 220
COc1ccc(-c2ccc(C(=O)Nc3ccc(S(N)(=O)=O)c(OC)c3)cc2CO)c(C(F)(F)F)c1 [Example 128] | 140
CCNc1cc(C(=O)Nc2ccc(S(N)(=O)=O)c(OC)c2)ccc1-c1ccccc1C(F)(F)F [Example 131] | 170
CCN(CC)c1cc(C(=O)Nc2ccc(S(N)(=O)=O)c(OC)c2)ccc1-c1ccccc1C(F)(F)F [Example 132] | 290
CS(=O)(=O)c1ccc(NC(=O)c2ccc(-c3ccccc3OC(F)(F)F)c(CN3CCSCC3)c2)cc1 [Example 136] | 400
CS(=O)(=O)c1ccc(NC(=O)c2ccc(-c3ccccc3OC(F)(F)F)c(CN3CCC(F)(F)C3)c2)cc1 [Example 142] | 420
CS(=O)(=O)c1ccc(NC(=O)c2ccc(-c3ccccc3OC(F)(F)F)c(CN3CCCC(F)(F)C3)c2)cc1 [Example 144] | 500
CS(=O)(=O)c1ccc(NC(=O)c2ccc(-c3ccccc3OC(F)(F)F)c(CNC[C@H]3CCCO3)c2)cc1 [Example 147] | < 10000
Cn1ccc(CNCc2cc(C(=O)Nc3ccc(S(C)(=O)=O)cc3)ccc2-c2ccccc2OC(F)(F)F)n1 [Example 153] | 470
CCN(CC)Cc1cc(C(=O)Nc2ccc(S(C)(=O)=O)cc2)ccc1-c1ccccc1OC(F)(F)F [Example 159] | 290

Source: patent US20130116227A1, “BIARYL AMIDE DERIVATIVE OR PHARMACEUTICALLY ACCEPTABLE SALT THEREOF” (DAINIPPON SUMITOMO PHARMA CO., LTD., priority 2010, published 2013)
